Data reported in patent publication US4395969A (priority 1981, dated 1983).
“And” between values parts separate entries of the source, which are not always exact repeats. Identical values can stand only once.

Legend:
threespine stickleback [1] = test system: threespine stickleback; set-up: species or system Gasterosteus aculeatus; conditions: in vivo
white sucker = test: Static bioassay, lethal concentration to white sucker; assay type: in vivo, C. commmersoni; conditions: 15 C
Protocol: (§1) Bioassays utilized water from an artesian well at Moscow, Idaho and from the headwaters of the Palouse River, also in Idaho. The chemical characteristics of the artesian water were analyzed as follows: Total hardness 67-120 mg/l; total dissolved solids, 160-175 mg/l; and pH 7.1. The chemistry of the Palouse River water was analyzed as follows: total hardness 17 mg/l; methyl orange alkalinity 26 mg/l; total dissolved solids, 32 mg/l and pH, 7.0.
(§2) Fish were acclimated to test temperatures, usually at 5, 7.5, 10, 15 and 20 degrees Celsius (C), at least 60 hours before exposure to toxicants. For fish and crayfish four water baths regulated the temperature of assay aquaria. Each water bath contained a battery of 20 identical 19-liter clear glass containers or 11.4-liter plastic aquaria lined with disposable polyethylene bags and covered with Plexiglass lids to reduce evaporation. For larger fish and large numbers of fish the bioassays were made in two temperature controlled rooms that contained a series of 700-liter circular fiberglass vats and a series of 76- and 91-liter plastic containers.
(§3) Standard bioassay techniques were used in sorting fish and conducting the tests. Fish were placed in aerated test aquaria overnight to permit fish to recover from stress due to handling and to deprive them of food. The average load varied but most bioassays were conducted with about 1 g of fish per liter of water.
(§4) Aliquots of organophosphates were dissolved in ethanol and dispensed to the aquaria to provide concentrations suitable for obtaining the LC0 and LC50 of desirable fish and the LC50 and LC100 of target fish. Control fish were conditioned in the same manner as the test fish, but no chemical was added to the control vessels during the assays. After the addition of a chemical, observations were made mainly at 3, 6, 12, 24, 48, 96, and 192 h. The weight and fork length of fish were obtained when fishes were sacrificed.
(§5) Delineation bioassays determined primarily the LC50 and LC100 of sucker and stickleback and the LC0 and LC50 of salmonids.
(§6) The statistical LC1, LC50, and LC99 were interpolated and/or extrapolated using probit graph paper to approximate the LC0, LC50, and LC100 when the latter set of values was not closely determined by single concentrations in a series.
(§7) The approximate LC50 and LC100 of the target fishes (threespine and brook sticklebacks and bridgelip and white suckers) are tabulated in Table 1. The 96-hour selectivity and safety indices of selected species of salmonids versus the three-spine stickleback are tabulated in Table 3.
(§8) Threespine stickleback, brook stickleback, bridgelip sucker, white sucker, chinook salmon, coho salmon, sockeye salmon, kokanee, Kamloops trout, cutthroat trout, and brook trout were treated with various concentrations of 2, 2, 2, 1-tetrachloroethyl diethyl phosphate and at various temperatures to determine approximate selectivity and safety indices. The approximate LC50 and LC100 of the target fishes (threespine and brook sticklebacks and bridgelip and white suckers) are tabulated in Table 5. The 96-hour selectivity and safety indices of selected species of salmonids versus the threespine stickleback are tabulated in Table 7.

[2] = Static bioassay, lethal concentration to sockeye salmon; assay type: in vivo, O. nerka; conditions: sockeye salmon, in vivo
Protocol: as §1, §2, §3, §4, §5, §6, §7, §8

sockeye salmon = test: as above; assay type: in vivo, O. nerka
Protocol: as §1, §2, §3, §4, §5, §6, §7, §8

[3] = Static bioassay, lethal concentration to Kamloops trout; assay type: in vivo, Kamloops (an adfluvial rainbow trout); conditions: kamloops trout, in vivo
Protocol: as §1, §2, §3, §4, §5, §6, §7, §8

Kamloops trout = test: as above; assay type: in vivo, Kamloops (an adfluvial rainbow trout)
Protocol: as §1, §2, §3, §4, §5, §6, §7, §8

[4] = Static bioassay, lethal concentration to brook trout; assay type: in vivo, Salvelinus fontinalis; conditions: brook trout, water, 15 C
Protocol: as §1, §2, §3, §4, §5, §6, §7, §8

brook trout = test: as above; assay type: in vivo, Salvelinus fontinalis; conditions: 15 C
Protocol: as §1, §2, §3, §4, §5, §6, §7, §8

threespine stickleback [5] = test system: threespine stickleback; set-up: species or system Gasterosteus aculeatus; conditions: in vivo, 5760 min
crayfish = test: Bioassay, crayfish; assay type: in vivo, Pacifasticus klamathensis; conditions: 96 h; 10 C
Protocol: Cursory bioassays were made with small numbers of other fishes and a crayfish (Pacifasticus klamathensis) to check on the universal selectivity of the toxicants. The fishes included Arctic grayling (Thymallus arcticus), longnose sucker (C. catastomus), largescale sucker, (C. macrocheilus), and spotted sucker (Minytrema melanops).
A series of bioassays tested crayfish (9 to 10 crayfish per aquarium) at concentrations of 1, 3, and 10 mg/l of 2, 2-dichlorovinyl diethyl phosphate. […] A second series of bioassays tested crayfish (10 crayfish per aquarium) at 10 concentrations of 2, 2, 2, 1-tetrachloroethyl diethyl phosphate (range, 0 to 1400 μg/l).

[6] = Half-life / degradation in water (gas chromatograph analysis); assay type: physicochemical; conditions: river water, 15 C
Source text: The presence of bacteria and other microorganisms affect the rate of degradation of the dichloro- and tetrachloro-compounds. Because of this the chemicals break down much faster in river water than in artesian well water or distilled water. For short term bioassays the potencies of the chemicals were not affected by the chemistry of the water.

sucker and stickleback = conditions: in vivo
chinook salmon = test: Long-term static bioassay, chinook salmon; conditions: 6 μg/l (or less), 64 days, 10 C, individually
[7] = 10 C, individually, read-out: LC50
[8] = with 2 Cl 1:300, 10 C, read-out: LC50 in combination, 4 Cl component
[9] = 10 C, 96 h, individually, listed as 2, 2, 2, 1-tetrachloroethyl diethyl phosphate
[10] = 10 C, 96 h, individually, listed as 4 Cl

**Q.** Which “LC50 in combination, 4 Cl component” value (threespine stickleback [1]) does the source give for CCOP(=O)(OCC)OC(Cl)C(Cl)(Cl)Cl (stereo not drawn) [2,2,2,1-tetrachloroethyl diethyl phosphate] here?
**A.** 0.001 µg/mL and 0.00067 µg/mL

**Q.** What about the “concentration achieving 100% mortality” value (threespine stickleback [1]) of the same molecule?
**A.** 7 mg/L

**Q.** What about the LC50 (white sucker; 24 h) of the same molecule?
**A.** 0.004 µg/mL

**Q.** What about the LC100 (white sucker; 24 h) of the same molecule?
**A.** 10 µg/L

**Q.** What about the LC50 (white sucker; 48 h) of the same molecule?
**A.** < 0.003 µg/mL

**Q.** What about the LC100 (white sucker; 48 h) of the same molecule?
**A.** 10 µg/L

**Q.** What about the LC50 at 48 h ([2]; 7.5 C) of the same molecule?
**A.** 0.05 µg/mL

**Q.** And the LC50 at 96 h ([2]; 7.5 C, read-out: LC50)?
**A.** 0.02 µg/mL

**Q.** What about the LC50 at 192 h ([2]; 7.5 C, read-out: LC50) of the same molecule?
**A.** 0.014 µg/mL

**Q.** And the LC50 at 48 h ([2]; 10 C)?
**A.** 0.03 µg/mL

**Q.** What about the LC50 at 96 h [2, 7] of the same molecule?
**A.** 0.017 µg/mL

**Q.** And the LC50 at 192 h [2, 7]?
**A.** 0.016 µg/mL

**Q.** And the LC50 at 96 h [2, 8]?
**A.** 0.008 µg/mL

**Q.** What about the LC50 at 192 h [2, 8] of the same molecule?
**A.** 0.006 µg/mL

**Q.** What about the LC0 (sockeye salmon; 7.5 C, 48 h) of the same molecule?
**A.** 36 µg/L

**Q.** And the LC0 (sockeye salmon; 7.5 C, 96 h)?
**A.** 14 µg/L

**Q.** And the LC0 (sockeye salmon; 7.5 C, 192 h)?
**A.** 10 µg/L

**Q.** What about the LC0 (sockeye salmon; 10 C, 48 h) of the same molecule?
**A.** 20 µg/L

**Q.** And the LC50 (sockeye salmon; 10 C, 96 h, individually)?
**A.** 0.017 µg/mL

**Q.** What about the LC0 (sockeye salmon; [9]) of the same molecule?
**A.** 12 µg/L and 10 µg/L

**Q.** And the LC0 (sockeye salmon; [10])?
**A.** 12 µg/L

**Q.** What about the LC0 (sockeye salmon; 10 C, 192 h) of the same molecule?
**A.** 10 µg/L

**Q.** What about the LC50 (sockeye salmon; 10 C, 192 h, individually, listed as 4 Cl, 11520 min) of the same molecule?
**A.** 0.015 µg/mL

**Q.** What about the LC50 at 96 h ([3]; 5 C, read-out: LC50) of the same molecule?
**A.** > 0.03 µg/mL

**Q.** And the LC50 at 192 h ([3]; 5 C, read-out: LC50)?
**A.** 0.018 µg/mL

**Q.** And the LC50 at 96 h [3, 7]?
**A.** 0.024 µg/mL

**Q.** What about the LC50 at 192 h [3, 7] of the same molecule?
**A.** 0.02 µg/mL

**Q.** And the LC50 at 96 h ([3]; 15 C, read-out: LC50)?
**A.** > 0.024 µg/mL

**Q.** And the LC50 at 192 h ([3]; 15 C, read-out: LC50)?
**A.** > 0.024 µg/mL

**Q.** And the LC50 at 96 h [3, 8]?
**A.** 0.008 µg/mL

**Q.** And the LC50 at 192 h [3, 8]?
**A.** 0.005 µg/mL

**Q.** And the LC0 (Kamloops trout; 5 C, 96 h)?
**A.** 24 µg/L

**Q.** What about the LC0 (Kamloops trout; 5 C, 192 h) of the same molecule?
**A.** 12 µg/L

**Q.** And the LC0 (Kamloops trout; [9])?
**A.** 18 µg/L and 14 µg/L

**Q.** And the LC0 (Kamloops trout; [10])?
**A.** 14 µg/L

**Q.** And the LC0 (Kamloops trout; 10 C, 192 h)?
**A.** 10 µg/L

**Q.** And the LC0 (Kamloops trout; 15 C, 96 h)?
**A.** 24 µg/L

**Q.** And the LC0 (Kamloops trout; 15 C, 192 h)?
**A.** 14 µg/L

**Q.** What about the LC50 at 48 h ([4]; 48 h) of the same molecule?
**A.** 0.022 µg/mL

**Q.** What about the LC50 at 96 h ([4]; 96 h) of the same molecule?
**A.** 0.02 µg/mL

**Q.** And the LC50 at 192 h ([4]; 192 h)?
**A.** 0.02 µg/mL

**Q.** And the LC0 (brook trout; 48 h)?
**A.** 10 µg/L

**Q.** What about the LC0 (brook trout; 96 h) of the same molecule?
**A.** 10 µg/L

**Q.** What about the LC0 (brook trout; 192 h) of the same molecule?
**A.** 10 µg/L

**Q.** And the “Safety index (LC0/LC100)” value (threespine stickleback [5])?
**A.** 2.3

**Q.** And the “concentration at which no crayfish died” value (crayfish)?
**A.** ≤ 200 ng/mL

**Q.** And the half-life [6]?
**A.** ~11 days

**Q.** And the “activity relative to the dichloro-compounds” value (sucker and stickleback)?
**A.** about 100 times

**Q.** And the “recommended safe and effective concentration” value (sucker and stickleback)?
**A.** 20 µg/L

**Q.** What about the mortality (chinook salmon) of the same molecule?
**A.** Essentially no mortality

**Q.** What about the mortality (chinook salmon; listed as 2, 2, 2, 1-tetrachloroethyl diethyl phosphate) of the same molecule?
**A.** no significant mortality
